Several values for one entry are separate records, joined by “and”; a condition that tells them apart may be missing. Equal values may be shown once.
Legend:
FAAH = details: rat brain membranes; cited from earlier work
HepG2 cells = test: Inhibition and recovery of esterase activity in intact HepG2 cells; type: cell-based
CES1 [1] = target: T1, CES1 (Homo sapiens, UniProt P23141); type: biochemical
T1 sequence (P23141 18-567): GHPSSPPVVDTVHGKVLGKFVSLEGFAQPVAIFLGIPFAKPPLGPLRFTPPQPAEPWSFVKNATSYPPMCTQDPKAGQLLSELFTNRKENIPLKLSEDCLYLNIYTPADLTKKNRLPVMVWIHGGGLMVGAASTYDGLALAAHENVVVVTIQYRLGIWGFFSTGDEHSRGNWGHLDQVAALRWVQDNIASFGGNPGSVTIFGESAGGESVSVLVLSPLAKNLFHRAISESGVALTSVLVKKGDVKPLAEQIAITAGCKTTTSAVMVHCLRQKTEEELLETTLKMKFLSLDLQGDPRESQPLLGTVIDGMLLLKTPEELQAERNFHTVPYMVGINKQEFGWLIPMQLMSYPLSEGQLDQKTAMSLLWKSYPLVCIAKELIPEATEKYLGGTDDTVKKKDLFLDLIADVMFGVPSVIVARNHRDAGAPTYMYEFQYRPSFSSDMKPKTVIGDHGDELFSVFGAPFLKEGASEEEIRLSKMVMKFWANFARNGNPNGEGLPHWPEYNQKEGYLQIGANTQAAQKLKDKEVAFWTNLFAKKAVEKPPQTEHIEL

rat ortholog of CES1 = details: cited from earlier work
MAGL = details: mouse brain membrane proteome; cited from earlier work
recombinant human CES2 = target: T2, recombinant human CES2 (Homo sapiens, UniProt O00748); test: Inactivation kinetics of recombinant CES2, pNPV hydrolysis progress curves; type: biochemical; details: CES1 and MAGL versus CES2
T2 sequence (O00748 27-559): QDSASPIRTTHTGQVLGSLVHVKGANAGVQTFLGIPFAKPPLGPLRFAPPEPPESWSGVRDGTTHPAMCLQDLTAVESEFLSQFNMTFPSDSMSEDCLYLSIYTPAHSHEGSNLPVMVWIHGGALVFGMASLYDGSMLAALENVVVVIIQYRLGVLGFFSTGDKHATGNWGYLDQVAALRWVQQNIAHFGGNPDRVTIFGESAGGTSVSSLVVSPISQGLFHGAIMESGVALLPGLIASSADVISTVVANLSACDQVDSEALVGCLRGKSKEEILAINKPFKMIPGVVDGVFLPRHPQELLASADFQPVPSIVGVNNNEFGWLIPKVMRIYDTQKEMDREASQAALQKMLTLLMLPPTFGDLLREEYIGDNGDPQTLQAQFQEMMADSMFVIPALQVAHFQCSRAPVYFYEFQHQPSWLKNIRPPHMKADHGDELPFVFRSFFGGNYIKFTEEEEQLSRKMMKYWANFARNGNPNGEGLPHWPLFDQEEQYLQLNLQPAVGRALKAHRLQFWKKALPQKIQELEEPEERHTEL

CES1 [2] = target: T1, CES1; test: Esterase activity of HepG2 cell lysate in presence of S-3030; type: biochemical
CES1 [3] = target: T1, CES1; test: Inactivation kinetics of recombinant CES1, pNPV hydrolysis progress curves; type: biochemical; details: comparison with oxon values of ref 24

Compound: NC(=O)c1cccc(-c2cccc(OC(=O)NC3CCCCC3)c2)c1 [URB597]
- IC50 (FAAH): 4.6 nM
- esterase activity, % of the control activity (HepG2 cells; 10 μM, 30 min treatment, recovery over 48 hr): 50%
- inhibition at 10 µM (HepG2 cells; Homo sapiens, HepG2, 0.5 h, read-out: inhibition of esterase activity): ≥ 90%
- t1/2 (half life of reactivation) (CES1 [1]): 11 h and 11 ± 4^a h

Compound: CNC(=O)Oc1cccc2ccccc12 [carbaryl]
- ki (bimolecular rate constant) (rat ortholog of CES1): 856 M⁻¹ s⁻¹

Compound: O=C(Oc1ccc([N+](=O)[O-])cc1)N1CCC(C(O)(c2ccc3c(c2)OCO3)c2ccc3c(c2)OCO3)CC1 [JZL184]
- bimolecular rate constants for CES1 and MAGL greater than for CES2 (recombinant human CES2): 17-38 fold
- esterase activity remained depressed (HepG2 cells; 10 μM, 30 min treatment, over 48 hr after treatment): ~ 90%
- inhibition of esterase activity (HepG2 cells; 10 μM, 30 min treatment, time 0, pNPV substrate): ≥ 90%
- reactivation rate slower than CES1 inhibited by URB597 (CES1 [1]): 4.5 x
- t1/2 (half life of reactivation) (CES1 [1]): 49 ± 15 h and 49 h and 49 ± 15^b h

Compound: O=C1C(=O)c2sccc2-c2ccsc21 [S-3030, Thieno[3,2-e][1]benzothiophene-4,5-dione]
- esterase activity sensitive to S-3030-mediated inhibition (CES1 [2]; activity recovered by 48 hr following URB597 treatment (data not shown)): 74%
- share of esterase activity accounted for by CES1 (S-3030 sensitive) (CES1 [2]; untreated HepG2 cell lysate, 10 μM S-3030, pNPV substrate): 71.5±2.1%

Compound: chlorpyrifos oxon
- more reactive toward CES1 than JZL184 (CES1 [3]): 500 x
